# A melting point compilation (Tetko et al.; mined from patent text by program, amines drawn as free bases though some values may be those of a salt)
row,Structure (SMILES),melting point [°C]
1,O=C1CCN(Cc2cccnc2)C(=O)C1,55 to 60
2,CON(C)S(=O)(=O)c1ccccc1S(N)(=O)=O,136 to 140
3,CC1(C)Cc2ccccc2C1NC=NC#N (configuration not stated),164 to 167
4,O=[N+]([O-])c1cnc2ccccc2c1NCC12CCCN1CCC2,155 to 158
5,CCSCC12CCC(=O)C=C1CCC1C3CC(C)C(=O)C3(C)CCC12 (configuration not stated),102
6,Cc1nc(N)nc(N)c1CCCc1ccc(Cl)cc1Cl,181 to 185
7,CCSc1ccc2nc(C(F)(F)F)c(S(N)(=O)=O)n2n1,208 to 210
8,FC(F)(F)c1ccccc1NCC1=NNCCN1,97 to 98
9,S=C=NCC1CC(c2ccc(Br)cc2)=NO1 (configuration not stated),123 to 125
10,O=C1C=CC(=O)N1c1cccc(I)c1,154 to 155
11,O=S(=O)(CF)c1cccc(Br)c1Cl,149
12,Fc1ccc2[nH]cc(C3=CCN(CC4COc5ccc6c(c5O4)OCCC6)CC3)c2c1 (configuration not stated),146 to 148
13,C=CCOc1nccnc1Cl,149 to 150
14,Cc1ccc(C(NC(c2ccccc2)c2ccccc2)P(O)O)cc1 (configuration not stated),208 to 209
15,COc1cc(N=C(NC#N)Oc2ccccc2)cc(C(F)(F)F)c1,168 to 170
16,Nc1cccc(Cn2c(-c3ccc(-c4ccccc4)cc3)ccc2-c2ccccc2Cl)n1,181 to 185
17,CN(C)C=Nc1[nH]nc(-c2cccc([N+](=O)[O-])c2)c1C#N,221 to 225
18,CCC(O)(c1ccc(F)cc1)c1ccc(OCCN2CCCCC2)cc1 (configuration not stated),72 to 73
19,Cc1ccc(S(=O)(=O)n2ccc3cc(Br)ccc32)cc1,135
20,CS(=O)(=O)NC[C@@H]1CN(c2ccc(N3CCC(O)(CN=[N+]=[N-])CC3)c(F)c2)C(=O)O1,142 to 144
21,CCN=C(NC#N)NCCSCc1ncccc1Br,123 to 124
22,C=CCOc1nc2c(c3ccccc13)c1cc(Cl)ccc1n2C,147 to 148
23,NCCCCn1cnc2c(N)nc3cccnc3c21,161 to 163
24,Cc1cccc(C)c1OC1CN(C(c2ccccc2)c2ccccc2)C1,99 to 100
25,O=c1oc2ccccc2n1-c1ccccc1[N+](=O)[O-],153 to 155
26,CNC(=O)[C@@H]1CCCN1S(=O)(=O)c1ccc(Cl)c(COc2cccc3c2NC(C)(C)C=C3n2cncn2)c1Cl,131
27,CN1CC[C@]2(c3cccc(O)c3)CC(=O)CC[C@@H]2C1 (relative stereo),175
28,Cc1nc(C#CCCc2nc3ccccc3o2)cn1C,117 to 119

row,Structure (SMILES),melting point [°C]
1,Cc1noc(NS(=O)(=O)c2ccccc2C#N)c1Br,152 to 155
2,CS(=O)(=O)Nc1ccc([N+](=O)[O-])cc1OC1CCCCC1,136 to 137
3,CCn1nc2c(N)nc3ncccc3c2c1CC(C)C,273 to 276
4,CSc1ccc(-c2c(Cl)ncn2-c2ccc(S(C)(=O)=O)cc2)cc1,216 to 220
5,COc1cc(Nc2nccc(-c3ccc(N4CCN(CCN)CC4)nc3)n2)cc(OC)c1OC,88 to 89
6,Cc1c(O)ccc2c1CCCC2=O,195 to 197
7,Cc1ccc(S(=O)(=O)n2ccc3c(-c4c(C)nc5ccc(Cl)nn45)ccnc32)cc1,138 to 140
8,CC(=O)Nc1nc2c(nc(F)n2COCCOC(C)=O)c(=O)[nH]1,196 to 198
9,Cc1cccc(Cl)c1NC(=O)N=C1NCCN1,169 to 171
10,COC(=O)c1cccc(-c2cccc(Oc3ccc(Cl)cc3Cl)n2)c1,112 to 113
11,COc1ccc(-c2ccc(C(=N)NO)cc2)cc1-c1nc2cc(C(=N)NO)ccc2[nH]1,> 340
12,N#CNC(=NCCN1CCC(C2(c3ccc(F)cc3)OCCO2)CC1)N1CCCCC1,155 to 157
13,CC(=O)C1CCC2C3CCC4=CC(=O)C=CC4(C)C3CCC12CO[N+](=O)[O-] (configuration not stated),148 to 150
14,COCOc1ccc(Cl)cc1-c1cc(-c2cccc([N+](=O)[O-])c2)c(C#N)c(NC(=O)c2cccs2)n1,161 to 162
15,COc1ccc(COc2cccc3cc(NS(=O)(=O)C(F)(F)F)ccc23)cc1Cl,129 to 130
16,CCOC(=O)c1cc(C#N)c(C=O)nc1NC,137 to 139
17,O=S(Cc1cccc(C(F)(F)F)c1)c1nc2cnccc2[nH]1 (configuration not stated),194 to 197
18,CNCC1=C(n2ccccc2=O)c2cc([N+](=O)[O-])ccc2OC1(C)C,128
19,CC(C)CC(=O)Nc1cccc(-c2ccnc3c(-c4ccc(Cl)c(Cl)c4)cnn23)c1,215 to 217
20,CCN1C[C@@H](O)[C@H](NC2CCCCC2)C1 (relative stereo),68 to 71
21,COc1ccc(-c2cc(=S)n(C)c(=O)[nH]2)cc1OC,247 to 249
22,O=C(Nc1cccc2c(-n3c(-c4cccnc4)nc4ccccc43)ccnc12)c1c(Cl)cccc1Cl,203 to 204
23,CN(Cc1ccc(NC(=O)C2=Cc3cc(-c4ccc(N5CCCC5)cc4)ccc3OCC2)cc1)C1CCOCC1,210 to 211
24,N#Cc1ccc(Oc2cccc(Oc3ccc(C#N)c(C#N)c3)c2)cc1C#N,183 to 186
25,COc1nccnc1C1=CN2CCC1CC2,95 to 96
26,COc1ccc(-n2nc(CBr)cc2-c2ccc(Cl)cc2)cc1,88 to 90
27,COc1ccc(-c2cncc(OC3SCC(OC(C)=O)C(OC(C)=O)C3OC(C)=O)c2)c(C)c1 (configuration not stated),283

# Continued, values first:
row,melting point [°C],Structure (SMILES)
1,173 to 175,Cc1ccccc1C(CCC(=O)O)Oc1cc(OCc2ccsc2)ccc1C(=O)C(=O)O (racemic)
2,190,CCn1ncnc1COc1nn2c(-c3ccc(F)cc3)nncc2c1C(C)(C)C
3,101 to 102,COC(=O)CCn1cc(Cc2cccnc2)c2cc([N+](=O)[O-])ccc21
4,95 to 96,CCN(CC)CCOc1ccc2cc3ccc(OCCN(CC)CC)c(CO)c3nc2c1CO
5,201,O=C(CN1CCCC1)Nc1ccc2c(c1)C(=O)c1cc(NC(=O)CN3CCCC3)ccc1C2=O
6,128 to 130,CC(=O)Nc1ccc(CNC(=O)c2cccnc2Oc2ccc(F)cc2)cc1
7,140 to 143,COc1cc2c(cc1OC)C(N(CC(=O)O)C(=O)C(CSC(C)=O)CSC(C)=O)CC2 (configuration not stated)
8,232 to 234,CC(C)n1nc(-c2sc(C(N)=O)nc2-c2cccc(Cl)c2)ccc1=O
9,184,CCOCc1nc2c(c3cc(OCc4ccccc4)ccc3n3nnnc23)n1CC(C)C
10,225 to 228,CC(C)Oc1ccccc1C1(OCC(=O)O)C(=O)Nc2ccc(Cl)cc21 (configuration not stated)
11,200 to 202,Cc1ccc(C2C(=O)CC(C)(C)CC2=O)cc1
12,98,CCCCOc1ccc(S(=O)(=O)C2(C(=O)O)CCN(Cc3ccc(OCCN4CCCCC4)cc3)CC2)cc1
13,109 to 110,CC(=O)c1ccc(C=C(C)c2ccc3c(c2)C(C)(C)CCO3)cc1
14,116 to 117,O=S(=O)(Cc1coc(/C=C/c2ccccc2)n1)c1ccc(CCCn2ccnc2)cc1
15,87 to 92,CCCCCC(O)CCCC(Cc1ccc(C=CC(=O)O)cc1)C(C)=O (configuration not stated)
16,90 to 91.5,CC(C(=O)O)c1ccc2c(c1)CC(C(C)C)C2 (configuration not stated)
17,368,CC(C)(C)CC(=O)Nc1cc(NC(=O)C(C)(C)C)cc(NC(=O)C(C)(C)C)c1
18,106 to 110,O=C(c1cccs1)c1cnn2c(-c3cccc(-c4ccc(CO)cc4)c3)ccnc12
19,> 72,CCOC(=O)c1c(N2CC3CC2CN3)c2cc(C)ccc2n(Cc2ccccc2)c1=O (configuration not stated)
20,155 to 157,CNC(=O)N(O)Cc1ccc2c(c1)OCc1ccccc1C2=O
21,192 to 195,O=C1C(=CO)c2ccccc2N1c1ccccc1
22,91 to 97,N#CCc1ccc(OCc2ccccc2)c([N+](=O)[O-])c1
23,41,COC1=C(OC)C(=O)C(CCCCCCCCCCCOC(C)=O)=C(C)C1=O
24,104 to 105,COc1cccc(C(=O)NCCNC(=O)OC(C)(C)C)n1

row,melting point [°C],Structure (SMILES)
1,66 to 68,C=CC(=O)OCCOC(=O)Nc1ccccc1
2,160 to 162,CCOC(=O)NNc1ccc(N(CC)CC(C)O)nn1 (configuration not stated)
3,232 to 236,O=C1COc2cc(NC(=O)C(=O)O)ccc2N1
4,85 to 86,O=C(OCc1ccccc1)c1ccc(N2CCOCC2)cc1
5,198,CC(C)c1ncc(OCc2ccccc2)c(O)n1
6,73,COc1ccc(CN(CCN(C)CCCCCCNC(=C[N+](=O)[O-])NCCCOc2cccc(CN3CCCCC3)c2)c2ccccn2)cc1
7,163 to 164,CC(C)Nc1cccnc1N1CCN(C(=O)c2ccc(C(=O)N3CCSCC3)cc2)CC1
8,134 to 135,Cc1nnc(C(=O)CCCCCCOc2ccc(O)cc2)o1
9,233 to 235,CC(Nc1c(Nc2ccc(S(N)(=O)=O)cc2)c(=O)c1=O)C(C)(C)C (configuration not stated)
10,54 to 55,CCCCCCCCCCCCOCC(CO)(CO)COCCCCCCCCCCCC
11,129 to 130,CCOC(=O)c1cn(CC)c2c(F)c(C(C)=O)c(F)cc2c1=O
12,121,CC(c1ccc(COCc2ccccc2)o1)N(O)C(N)=O (configuration not stated)
13,148 to 150,CCCc1nc2c(N)nc(C)c(C)c2n1CCCC(C)=O
14,108,CC(C)[C@H](NC(=O)OC(C)(C)C)C(=O)NCCCN1CCN(CCCNc2cccc3c2C(=O)c2ccccc2C3=O)CC1
15,242 to 244,O=C1c2cccc3cc(OCCO)cc(c23)C(=O)N1O
16,86 to 87,OCCOCCNc1ncncc1Cc1ccccc1
17,112,ClCCCOc1ccc(SCCCCl)cc1
18,94 to 95,CN(C)Cc1ccc([C@H]2CC[C@H](OC(=O)c3ccc(Cl)cc3)CC2)cc1
19,150 to 157,CCC(=O)N1CCC(NC(=O)Nc2ccccc2Cl)CC1
20,174,CCOC(=O)N(Cn1cc(Cl)cnc1=O)c1ccccc1
21,60 to 63,O=[N+]([O-])c1ccc(OCC(O)CCCl)cc1 (configuration not stated)
22,107 to 108,CCOC(=O)[C@@H](O)[C@@H]1OC(=O)c2cc(OC)c(OS(=O)(=O)c3ccc(C)cc3)cc21
23,107 to 108,CCc1cc(C)c2c(-c3cccc(Br)c3)cc(=O)n(CC)c2n1
